The text below walks through data of patent publication US20100216779A1 (GLAXOSMITHKLINE LLC, priority 2007, published 2010).

The structures appear in SMILES notation.

This data set relates to Colo-205 tumors (colon carcinoma cell line). The data set is described as follows: In vivo efficacy, Colo-205 tumor bearing mice. Also noted: species or system mouse. As for the experimental part:
In addition to the LISN xenograft efficacy studies, Example 57 has also been assessed in vivo in two other mouse models of cancer, including: Colo-205 tumor bearing mice (colon carcinoma cell line) and BT474 tumor bearing mice (breast carcinoma cell line). Forty female nude mice bearing Colo-205 tumors (average tumor size of 200 mm3) were randomized into five groups of eight mice and dosed with either vehicle (20% SBE pH3.5) or Example 57 at 100, 30, 10 mg/kg QD or 30 mg/kg BID for 21 days. The groups of mice dosed with the higher doses of Example 57 (100 mg/kg QD and 30 mg/kg BID) lost greater than 20% body weight within 10 days of dosing so were taken off the study and allowed to recover. […] The higher doses of 100 mg/kg QDx10 and 30 mg/kg BIDx10 achieved 72 and 49% tumor growth inhibition respectively.

With `COc1cc(N2CCC(N3CCN(CCF)CC3)CC2)ccc1Nc1nccc(-c2c(-c3cccc(C(=O)Nc4c(F)cccc4F)c3)nc3ccccn23)n1` [Example 57, N-(2,6-difluorophenyl)-3-[3-(2-{[4-{4-[4-(2-fluoroethyl)-1-piperazinyl]-1-piperidinyl}-2-(methyloxy)phenyl]amino}-4-pyrimidinyl)imidazo[1,2-a]pyridin-2-yl]benzamide], the tumor growth inhibition came out at 17% (Colo-205, 10 mg/kg QDx21); 49% (Colo-205, 30 mg/kg BIDx10); 40% (Colo-205, 30 mg/kg QDx21); 72% (Colo-205, 100 mg/kg QDx10). For the same molecule, under “Colo-205, 100 mg/kg QD and 30 mg/kg BID, within 10 days of dosing”, the body weight lost entry is on record as “greater than 20%”. Moreover, the body weight loss entry (Colo-205, 30 and 10 mg/kg QDx21) is “no body weight loss”.
